In US10172830B2, “Pyrazolone compounds having human neutrophil elastase inhibitory properties” (CHIESI FARMACEUTICI S.P.A., priority 2016, dated 2019):

The compounds below were run against T1, human neutrophil elastase (HNE) (Homo sapiens, UniProt P08246) (assay: HNE enzyme assay (human neutrophil elastase enzyme activity assay)). Settings: human leukocyte elastase 0.00072 U/mL; substrate MeOSuc-Ala-Ala-Pro-Val-AMC 100 μM; 25° C. for 30 minutes; at least two separate experiments; read-out: HNE inhibition (HNE enzyme inhibition, IC50 values).
T1 construct: purchased Sigma E8140
T1 sequence (P08246 30-247 limits assumed): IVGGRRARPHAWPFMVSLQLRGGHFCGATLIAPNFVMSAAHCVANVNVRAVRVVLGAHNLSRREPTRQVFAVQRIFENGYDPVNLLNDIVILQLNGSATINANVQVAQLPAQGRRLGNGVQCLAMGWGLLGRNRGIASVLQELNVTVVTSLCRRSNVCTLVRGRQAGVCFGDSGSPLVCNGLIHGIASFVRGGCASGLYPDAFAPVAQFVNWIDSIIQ
Type: biochemical
Method: Compounds of the present invention were tested for potency in a human neutrophil elastase (HNE) enzyme activity assay.
Assays were performed in 96-well plates in a total assay volume of 100 μL. The final concentration of elastase enzyme (human leukocyte elastase, Sigma E8140) was 0.00072 U/mL. The peptide substrate (MeOSuc-Ala-Ala-Pro-Val-AMC, Calbiochem #324740) was used at a final concentration of 100 μM. The final concentration of DMSO was 1% in the assay buffer (0.05M Tris.HCl, 0.1M NaCl, 0.1M CaCl2, 0.0005% brij-35, pH 7.5). The enzymatic reaction was started by addition of the enzyme and incubated at 25° C. for 30 minutes. After incubation, the reaction was stopped by addition of soybean trypsin inhibitor (Sigma T9003) at a final concentration of 50 μg/well. Fluorescence was measured using a Molecular Devices fluorescence plate reader using 380 nm excitation and 460 nm emission wavelengths.
A dose response to each compound was performed and the effect of compound in each experiment was expressed as a percentage inhibition of the control enzyme fluorescence. Dose response curves were plotted and compound potency (IC50) was determined. Compounds were tested in at least two separate experiments.

Row | Structure (SMILES) | IC50 [nM]
1 | Cn1c(-c2ccnn2-c2ccc(C#N)cc2)c(C(=O)NC[C@H]2CC[C@H]([N+](C)(C)C)CC2)c(=O)n1-c1cccc(C(F)(F)F)c1 [Example 29, [Trans-4-({[2′-(4-cyano-phenyl)-2-methyl-5-oxo-1-(3-trifluoromethyl-phenyl)-2,5-dihydro-1H,2′H-[3,3′]bipyrazolyl-4-carbonyl]-amino}-methyl)-cyclohexyl]-trimethyl-ammonium benzene sulphonate] | 1 to 10
2 | CN(CC1CC[N+](C)(C)CC1)C(=O)C(C)(C)NC(=O)c1c(-c2ccnn2-c2ccc(C#N)cc2)n(C)n(-c2cccc(C(F)(F)F)c2)c1=O [Example 40, 4-{[(2-{[2′-(4-Cyano-phenyl)-2-methyl-5-oxo-1-(3-trifluoromethyl-phenyl)-2,5-dihydro-1H,2′H-[3,3′]bipyrazolyl-4-carbonyl]-amino}-2-methyl-propionyl)-methyl-amino]-methyl}-1,1-dimethyl-piperidinium benzene sulphonate] | < 1
3 | CN(C)CC(=O)N1CCC(NC(=O)c2c(-c3ccnn3-c3ccc(C#N)cc3)n(C)n(-c3cccc(C(F)(F)F)c3)c2=O)CC1 [Example 6, 2′-(4-Cyano-phenyl)-2-methyl-5-oxo-1-(3-trifluoromethyl-phenyl)-2,5-dihydro-1H,2′H-[3,3′]bipyrazolyl-4-carboxylic acid [1-(2-dimethylamino-acetyl)-piperidin-4-yl]-amide] | < 1
4 | CN(C)C1CCN(C(=O)[C@H]2CC[C@H](NC(=O)c3c(-c4ccnn4-c4ccc(C#N)cc4)n(C)n(-c4cccc(C(F)(F)F)c4)c3=O)CC2)CC1 [Example 14, 2′-(Trans-4-cyano-phenyl)-2-methyl-5-oxo-1-(3-trifluoromethyl-phenyl)-2,5-dihydro-1H,2′H-[3,3′]bipyrazolyl-4-carboxylic acid [4-(4-dimethylamino-piperidine-1-carbonyl)-cyclohexyl]-amide] | < 1
5 | Cn1c(-c2ccnn2-c2ccc(C#N)cc2)c(C(=O)NCC[N+](C)(C)C)c(=O)n1-c1cccc(C(F)(F)F)c1 [Example 21, (2-{[2′-(4-Cyano-phenyl)-2-methyl-5-oxo-1-(3-trifluoromethyl-phenyl)-2,5-dihydro-1H,2′H-[3,3′]bipyrazolyl-4-carbonyl]-amino}-ethyl)-trimethyl-ammonium benzene sulphonate] | 1 to 10
6 | CN1CCC(NC(=O)c2c(-c3ccnn3-c3ccc(C#N)cc3)n(C)n(-c3cccc(C(F)(F)F)c3)c2=O)CC1 [Example 2, 2′-(4-Cyano-phenyl)-2-methyl-5-oxo-1-(3-trifluoromethyl-phenyl)-2,5-dihydro-1H,2′H-[3,3′]bipyrazolyl-4-carboxylic acid (1-methyl-piperidin-4-yl)-amide] | 1 to 10
7 | Cc1cc(C[N+](C)(C)CC(=O)N2CCC(NC(=O)c3c(-c4ccnn4-c4ccc(C#N)cc4)n(C)n(-c4cccc(C(F)(F)F)c4)c3=O)CC2)no1 [Example 50, [2-(4-{[2′-(4-Cyano-phenyl)-2-methyl-5-oxo-1-(3-trifluoromethyl-phenyl)-2,5-dihydro-1H,2′H-[3,3′]bipyrazolyl-4-carbonyl]-amino}-piperidin-1-yl)-2-oxo-ethyl]-dimethyl-(5-methyl-isoxazol-3-ylmethyl)-ammonium chloride] | < 1
8 | Cc1cc(C[N+](C)(C)C[C@H]2CC[C@H](NC(=O)c3c(-c4ccnn4-c4ccc(C#N)cc4)n(C)n(-c4cccc(C(F)(F)F)c4)c3=O)CC2)no1 [Example 47, (Trans-4-{[2′-(4-cyano-phenyl)-2-methyl-5-oxo-1-(3-trifluoromethyl-phenyl)-2,5-dihydro-1H,2′H-[3,3′]bipyrazolyl-4-carbonyl]-amino}-cyclohexylmethyl)-dimethyl-(5-methyl-isoxazol-3-ylmethyl)-ammonium chloride] | < 1
9 | CN1CCC(CN(C)C(=O)C(C)(C)NC(=O)c2c(-c3ccnn3-c3ccc(C#N)cc3)n(C)n(-c3cccc(C(F)(F)F)c3)c2=O)CC1 [Example 9, 2′-(4-Cyano-phenyl)-2-methyl-5-oxo-1-(3-trifluoromethyl-phenyl)-2,5-dihydro-1H,2′H-[3,3′]bipyrazolyl-4-carboxylic acid {1-methyl-1-[methyl-(1-methyl-piperidin-4-ylmethyl)-carbamoyl]-ethyl}-amide] | < 1
10 | Cn1c(-c2ccnn2-c2ccc(C#N)cc2)c(C(=O)N[C@H]2CC[C@H](C(=O)NC3CC[N+](C)(C)CC3)CC2)c(=O)n1-c1cccc(C(F)(F)F)c1 [Example 58, 4-[(4-{[2′-(4-Cyano-phenyl)-2-methyl-5-oxo-1-(3-trifluoromethyl-phenyl)-2,5-dihydro-1H,2′H-[3,3′]bipyrazolyl-4-carbonyl]-amino}-cyclohexanecarbonyl)-amino]-1,1-dimethyl-piperidinium benzene sulphonate] | < 1

Further lines, results first:

Row | IC50 [nM] | Structure (SMILES)
11 | < 1 | C[C@H](NC(=O)c1c(-c2ccnn2-c2ccc(C#N)cc2)n(C)n(-c2cccc(C(F)(F)F)c2)c1=O)c1cc[n+](C)cc1 [Example 19, 4-((S)-1-{[2′-(4-Cyano-phenyl)-2-methyl-5-oxo-1-(3-trifluoromethyl-phenyl)-2,5-dihydro-1H,2′H-[3,3′]bipyrazolyl-4-carbonyl]-amino}-ethyl)-1-methyl-pyridinium benzene sulphonate]
12 | < 1 | Cn1c(-c2ccnn2-c2ccc(C#N)cc2)c(C(=O)N[C@H]2CC[C@H](C(=O)NCC[N+](C)(C)C)CC2)c(=O)n1-c1cccc(C(F)(F)F)c1 [Example 42, {2-[(Trans-4-{[2′-(4-cyano-phenyl)-2-methyl-5-oxo-1-(3-trifluoromethyl-phenyl)-2,5-dihydro-1H,2′H-[3,3′]bipyrazolyl-4-carbonyl]-amino}-cyclohexanecarbonyl)-amino]-ethyl}-trimethyl-ammonium benzene sulphonate]
13 | < 1 | Cn1c(-c2ccnn2-c2ccc(C#N)cc2)c(C(=O)NC2CC[N+](C)(C)CC2)c(=O)n1-c1cccc(C(F)(F)F)c1 [Example 18, 4-{[2′-(4-Cyano-phenyl)-2-methyl-5-oxo-1-(3-trifluoromethyl-phenyl)-2,5-dihydro-1H,2′H-[3,3′]bipyrazolyl-4-carbonyl]-amino}-1,1-dimethyl-piperidinium benzene sulphonate]
14 | < 1 | Cn1c(-c2ccnn2-c2ccc(C#N)cc2)c(C(=O)N[C@H]2CC[C@H](NC(=O)C[N+](C)(C)C)CC2)c(=O)n1-c1cccc(C(F)(F)F)c1 [Example 45, [(Trans-4-{[2′-(4-cyano-phenyl)-2-methyl-5-oxo-1-(3-trifluoromethyl-phenyl)-2,5-dihydro-1H,2′H-[3,3′]bipyrazolyl-4-carbonyl]-amino}-cyclohexylcarbamoyl)-methyl]-trimethyl-ammonium benzene sulphonate]
15 | < 1 | Cn1c(-c2ccnn2-c2ccc(C#N)cc2)c(C(=O)NC2(C)CCN(C(=O)C[N+](C)(C)C)CC2)c(=O)n1-c1cccc(C(F)(F)F)c1 [Example 64, [2-(4-{[2′-(4-Cyano-phenyl)-2-methyl-5-oxo-1-(3-trifluoromethyl-phenyl)-2,5-dihydro-1H,2′H-[3,3′]bipyrazolyl-4-carbonyl]-amino}-4-methyl-piperidin-1-yl)-2-oxo-ethyl]-trimethyl-ammonium benzene sulphonate]
16 | < 1 | Cn1c(-c2ccnn2-c2ccc(C#N)cc2)c(C(=O)N[C@H]2CC[C@H](C[N+](C)(C)Cc3ccccc3)CC2)c(=O)n1-c1cccc(C(F)(F)F)c1 [Example 25, Benzyl-(trans-4-{[2′-(4-cyano-phenyl)-2-methyl-5-oxo-1-(3-trifluoromethyl-phenyl)-2,5-dihydro-1H,2′H-[3,3′]bipyrazolyl-4-carbonyl]-amino}-cyclohexylmethyl)-dimethyl-ammonium bromide]
17 | < 1 | C[C@H](NC(=O)c1c(-c2ccnn2-c2ccc(C#N)cc2)n(C)n(-c2cccc(C(F)(F)F)c2)c1=O)C(=O)N(C)CC1CC[N+](C)(C)CC1 [Example 36, 4-{[((S)-2-{[2′-(4-Cyano-phenyl)-2-methyl-5-oxo-1-(3-trifluoromethyl-phenyl)-2,5-dihydro-1H,2′H-[3,3′]bipyrazolyl-4-carbonyl]-amino}-propionyl)-methyl-amino]-methyl}-1,1-dimethyl-piperidinium benzene sulphonate]
18 | < 1 | Cn1c(-c2ccnn2-c2ccc(C#N)cc2)c(C(=O)NC2CCN(C(=O)C[N+](C)(C)C)CC2)c(=O)n1-c1cccc(C(F)(F)F)c1 [Example 33, [2-(4-{[2′-(4-Cyano-phenyl)-2-methyl-5-oxo-1-(3-trifluoromethyl-phenyl)-2,5-dihydro-1H,2′H-[3,3′]bipyrazolyl-4-carbonyl]-amino}-piperidin-1-yl)-2-oxo-ethyl]-trimethyl-ammonium benzene sulphonate]
19 | < 1 | CC(C)[C@H](NC(=O)c1c(-c2ccnn2-c2ccc(C#N)cc2)n(C)n(-c2cccc(C(F)(F)F)c2)c1=O)c1ncc(CN(C)C)o1 [Example 11, 2′-(4-Cyano-phenyl)-2-methyl-5-oxo-1-(3-trifluoromethyl-phenyl)-2,5-dihydro-1H,2′H-[3,3′]bipyrazolyl-4-carboxylic acid [(S)-1-(5-dimethylaminomethyl-oxazol-2-yl)-2-methyl-propyl]-amide]
